Literature values in patent publication US9302977B2, “Method of making monomethyl fumarate” (XenoPort, Inc., priority 2013, dated 2016).
Counter-ions that a name gives are not always drawn.

Experiments:
[1] = test system: TNF-induced NF-κB signaling
[2] = as an impurity

Row | Structure (SMILES) | aqueous solubility | TNF-induced DNA binding of NF-κB proteins [1] | TNF-induced nuclear entry of activated NF-κB proteins [1] | TNF-induced tissue factor mRNA and protein expression [1] | genotoxicity [2]
1 | COC(=O)/C=C/C(=O)OC [DMF, dimethyl fumarate] | poor | inhibits | inhibits | inhibits | 
2 | COS(=O)(=O)OC [Dimethyl sulfate] |  |  |  |  | genotoxic
